Data: patent US6906086B2, “Methods for inhibiting bone loss” (Eli Lilly and Company, priority 1992, dated 2005)
“Also recorded” adds a separate entry of the source. Where a name gives a salt, the structure may show the parent alone. Read-outs that look alike come from different tables or passages of the source.

How the values were obtained:
[1] = test system: ovariectomized (ovex) rats; assay: Uterine wet weight in ovariectomized rats; conditions: for % Uterine Weight Gain: relative to estrogen treated ovex animals
Protocol: (§1) One week after arrival, the rats underwent bilateral ovariectomy under anesthesia (44 mg/kg Ketamine and 5 mg/kg Xylazine (Butler, Indianapolis, Ind.) administered intramuscularly). Treatment with vehicle, estrogen, or a compound of formula I was initiated on the day of surgery following recovery from anesthesia. Oral dosage was by gavage in 0.5 mL of 1% carboxymethylcellulose (CMC). Body weight was determined at the time of surgery and weekly thereafter and the dosage was adjusted with changes in body weight. Vehicle or estrogen treated ovariectomized (ovex) rats and non-ovariectomized (intact) rats were evaluated in parallel with each experimental group to serve as negative and positive controls.
(§2) The rats were treated daily for 35 days (6 rats per treatment group) and sacrificed by decapitation on the 36th day. […] At the time of sacrifice, the uteri were removed, dissected free of extraneous tissue, and the fluid contents were expelled before determination of wet weight in order to confirm estrogen deficiency associated with complete ovariectomy. […] The uteri were then placed in 10% neutral buffered formalin to allow for subsequent histological analysis.

[2] = test system: ovariectomized (ovex) rats; assay: Ovariectomized rat model of post-menopausal osteoporosis: femur density by single photon absorptiometry; type: in vivo, Sprague Dawley rats; conditions: for inhibition in vivo at 1 mg/kg: Rattus norvegicus, read-out: % Inhibition of Bone Loss; for prevention of bone loss (femur density), in words: oral
Protocol: In the examples illustrating the methods, a model of post-menopausal osteoporosis was used in which effects of different treatments upon femur density were determined.
Seventy-five day old female Sprague Dawley rats (weight range of 225 to 275 g) were obtained from Charles River Laboratories (Portage, Mich.). They were housed in groups of 3 and had ad libitum access to food (calcium content approximately 1%) and water. Room temperature was maintained at 22.2°±1.7° C. with a minimum relative humidity of 40%. The photoperiod in the room was 12 hours light and 12 hours dark.
The right femurs were excised and scanned at the distal metaphysis 1 mm from the patellar groove with single photon absorptiometry. Results of the densitometer measurements represent a calculation of bone density as a function of the bone mineral content and bone width.

[3] = test system: ovariectomized (ovex) rats; conditions: rat, in vivo, po
Protocol: as §1, §2

ovariectomized rats = assay: Uterine histological parameters of estrogenicity in ovariectomized rats; conditions: for Epithelial Height / Myometrial Thickness / Stromal Eosinophils / Stromal Expansion: Table 6, ovex rats, 1 mg/kg
Protocol: A relatively narrow range of doses of raloxifene and tamoxifen was administered orally to ovariectomized rats as in the previous example.
Increases in epithelial height are a sign of estrogenicity of therapeutic agents and may be associated with increased incidence of uterine cancer.
Estrogenicity was also assessed by evaluating the adverse response of eosinophil infiltration into the stromal layer of the uterus (Table 6).

[4] = test system: uterine uptake of tritiated-estradiol; assay: Laboratory animal studies: uterine uptake of tritiated-estradiol and uterotrophic response to estradiol; conditions: laboratory animals; conditions where raloxifene was extensively conjugated in plasma
Source text: Experiments were undertaken to address the bioavailability issue in laboratory animals where biological activity could be assessed.

[5] = Oral administration to human subjects in the clinic: parent compound in serum
[6] = Love et al. 1992; Turner et al. 1988; cited from earlier work
[7] = ovex rats, 1 mg/kg oral, relative to estrogen treated ovex animals
[8] = Table 5, ovex rats, 1 mg/kg oral

With `O=C(Oc1ccc(-c2sc3cc(OC(=O)c4ccc(F)cc4)ccc3c2C(=O)c2ccc(OCCN3CCCCC3)cc2)cc1)c1ccc(F)cc1` [Compound 2, 6-(4-Fluorobenzoyloxy)-2-[4-(4-fluorobenzoyloxy)-phenyl]-benzo[b]thien-3-yl-[4-[2-(piperidin-1-yl)ethoxy)-phenyl]-methanone Hydrochloride] the “% Uterine Weight Gain” value ([1]; ovex rats, 1 mg/kg oral) was 26% and the inhibition in vivo at 1 mg/kg [2, 7] was 86%.
In the case of `CCCC(=O)Oc1ccc(-c2sc3cc(OC(=O)CCC)ccc3c2C(=O)c2ccc(OCCN3CCCCC3)cc2)cc1` [Compound 6, 6-(n-Butanoyloxy)-2-[4-(n-butanoyloxy)phenyl]benzo[b]thien-3-yl-[4-[2-(piperidin-1-yl)ethoxy]phenyl]methanone Hydrochloride], the “% Uterine Weight Gain” value ([1]; ovex rats, 1 mg/kg oral) is reported as 19% and the inhibition in vivo at 1 mg/kg [2, 7] is reported as 24%.
For `CC(C)(C)C(=O)Oc1ccc(-c2sc3cc(OC(=O)C(C)(C)C)ccc3c2C(=O)c2ccc(OCCN3CCCCC3)cc2)cc1.Cl` [Compound 8, 6-(2,2-Dimethylpropanoyloxy)-2-[4-(2,2-dimethyl-propanoyloxy)phenyl]benzo[b]thien-3-yl-[4-[2-(piperidin-1-yl)ethoxy]phenyl]methanone Hydrochloride], the “% Uterine Weight Gain” value ([1]; ovex rats, 1 mg/kg oral) was 24% and the inhibition in vivo at 1 mg/kg [2, 7] was 66%.
With `CC(C)(C)CC(=O)Oc1ccc(-c2sc3cc(OC(=O)CC(C)(C)C)ccc3c2C(=O)c2ccc(OCCN3CCCCC3)cc2)cc1` [Compound 10, 6-(3,3-Dimethylbutanoyloxy)-2-[4-(3,3-dimethylbutanoyloxy)-phenyl]benzo[b]thien-3-yl-[4-[2-(piperidin-1-yl)ethoxy]-phenyl]methanone Hydrochloride] the “% Uterine Weight Gain” value ([1]; ovex rats, 1 mg/kg oral) was 24% and the inhibition in vivo at 1 mg/kg [2, 7] was 52%.
For `Cc1ccc(C(=O)Oc2ccc(-c3sc4cc(OC(=O)c5ccc(C)cc5)ccc4c3C(=O)c3ccc(OCCN4CCCCC4)cc3)cc2)cc1` [Compound 11, 6-(4-Methylbenzoyloxy)-2-[4-(4-methylbenzoyloxy)-phenyl]benzo[b]thien-3-yl[4-[2-(piperidin-1-yl)ethoxy]-phenyl]methanone Hydrochloride], the “% Uterine Weight Gain” value ([1]; ovex rats, 1 mg/kg oral) was 28% and the inhibition in vivo at 1 mg/kg [2, 7] was 26%.
In the case of `O=C(Oc1ccc(-c2sc3cc(OC(=O)c4ccccc4)ccc3c2C(=O)c2ccc(OCCN3CCCCC3)cc2)cc1)c1ccccc1` [Compound 12], the “% Uterine Weight Gain” value ([3]; 1 mg/kg) is reported as 15% and the “% Inhibition of Bone Loss” value [2, 7] is reported as 60%.
For `CCCCOC(=O)Oc1ccc(-c2sc3cc(OC(=O)OCCCC)ccc3c2C(=O)c2ccc(OCCN3CCCCC3)cc2)cc1.Cl` [Compound 14, 6-(n-Butoxycarbonyloxy)-2-[4(n-butoxycarbonyloxy)phenyl]-benzo[b]thien-3-yl[4-[2-(piperidin-1-yl)ethoxy]phenyl]-methanone Hydrochloride], the “% Uterine Weight Gain” value ([1]; ovex rats, 1 mg/kg oral) was 32% and the inhibition in vivo at 1 mg/kg [2, 7] was 121%.
With `O=C(Oc1ccccc1)Oc1ccc(-c2sc3cc(OC(=O)Oc4ccccc4)ccc3c2C(=O)c2ccc(OCCN3CCCCC3)cc2)cc1` [Compound 16, 6-(Phenyloxycarbonyloxy)-2-[4(phenyloxycarbonyloxy)phenyl]-benzo[b]thien-3-yl[4-[2-(piperidin-1-yl)ethoxy]phenyl]-methanone hydrochloride] the “% Uterine Weight Gain” value ([1]; ovex rats, 1 mg/kg oral) was 25% and the inhibition in vivo at 1 mg/kg [2, 7] was 108%.
For `COCC(=O)Oc1ccc(-c2sc3cc(OC(=O)COC)ccc3c2C(=O)c2ccc(OCCN3CCCCC3)cc2)cc1` [Compound 18, 6-(Methoxyethanoyloxy)-2-[4(methoxyethanoyloxy)phenyl]-benzo[b]thien-3-yl [4-[2-(piperidin-1-yl)ethoxy]phenyl]-methanone], the “% Uterine Weight Gain” value ([1]; ovex rats, 1 mg/kg oral) was 17% and the inhibition in vivo at 1 mg/kg [2, 7] was 21%.
In the case of `C#C[C@]1(O)CC[C@H]2[C@@H]3CCc4cc(O)ccc4[C@H]3CC[C@@]21C` [EE2, ethynyl estradiol, reference compound], the “uterine weight, in words” value [3] is reported as “approached those of the intact controls”, the “Bone Density” value ([2]; Table 4 Experiment A, ovex rats, EE2 100 μg/kg oral) is reported as 202 ± 6 mg/cm/cm and the “Bone Density” value ([2]; Table 4 Experiment B, ovex rats, EE2 100 μg/kg oral) is reported as 215 ± 11 mg/cm/cm. The “Bone Density” value ([2]; Table 5, ovex rats, 100 μg/kg oral) was 212 ± 10 mg/cm/cm, the “prevention of bone loss (femur density), in words” value (“prevention of bone loss” below) ([2]; ovariectomized rats) was “prevented this loss of bone in a dose dependent manner” and the “Bone Density” value ([2]; ovex rats, 100 μg/kg oral daily 35 days, five experiments accumulated, mean of thirty rats ± SEM (Table 2)) was 210 ± 4 mg/cm/cm. The “eosinophil infiltration into the stromal layer of the uterus, in words” value (ovariectomized rats; rat, in vivo) was “caused a large increase in eosinophil infiltration” and the “epithelial height, in words” value (ovariectomized rats; rat, in vivo, po) was “increased epithelial height to a thickness greater than intact rats”.
In the case of `Cl.O=C(c1ccc(OCCN2CCCCC2)cc1)c1c(-c2ccc(O)cc2)sc2cc(O)ccc12` [raloxifene, 6-hydroxy-2-(4-hydroxyphenyl)-benzo[b]thien-3-yl-4-[2-(piperidin-1-yl)ethoxyphenyl]-methanone hydrochloride], the “Uterine Weight” value ([3]; 1 mg/kg) is reported as 198 ± 9 mg, the “inhibition of the normal uterotrophic response to estradiol” value [4] is reported as “maximally active” and the “inhibition of uterine uptake of tritiated-estradiol” value [4] is reported as “maximally active”. The “Bone Density” value ([2]; Table 4 Experiment B, ovex rats, raloxifene 1 mg/kg alone) was 198 ± 11 mg/cm/cm, the “Bone Density” value [2, 8] was 207 ± 13 mg/cm/cm and the “prevention of bone loss” value ([2]; ovariectomized rats, hydrochloride) was “prevented bone loss in a dose dependent manner; also recorded: significantly reduced bone loss; also recorded: displayed the ability to prevent reduction of femur density”. For the same compound, the “effect on the protective effect of estrogen on bone density” value ([2]; ovariectomized rats, given in combination with ethynyl estradiol) was “did not appreciably reduce the protective effect of the estrogen on bone density”, the “Bone Density” value ([2]; ovex rats, 0.01 mg/kg oral, 35 days, five assays combined, thirty rats, mean ± SEM (Table 3)) was 176 ± 3 mg/cm/cm and the “Bone Density” value ([2]; ovex rats, 0.10 mg/kg oral, 35 days, five assays combined, thirty rats, mean ± SEM (Table 3)) was 197 ± 3 mg/cm/cm. The “Bone Density” value ([2]; ovex rats, 1.00 mg/kg oral, 35 days, five assays combined, thirty rats, mean ± SEM (Table 3)) was 201 ± 3 mg/cm/cm, the “Bone Density” value ([2]; ovex rats, 10.00 mg/kg oral, 35 days, five assays combined, thirty rats, mean ± SEM (Table 3)) was 199 ± 3 mg/cm/cm and the “Epithelial Height” value (ovariectomized rats) was 1.67. For the same compound, the “Myometrial Thickness” value (ovariectomized rats) was 5.42, the “Stromal Eosinophils” value (ovariectomized rats) was 1.17 and the “Stromal Expansion” value (ovariectomized rats) was 14.00. For the same compound, the “eosinophil infiltration into the stromal layer of the uterus, in words” value (ovariectomized rats; ovariectomized rats) was “did not cause any increase”, the “thickness of the stroma and myometrium, in words” value (ovariectomized rats; ovariectomized rats) was “an increase in these measurements that was much less than the effect of estrogen” and the “total score of estrogenicity (compilation of all four parameters)” value (ovariectomized rats; ovariectomized rats) was “significantly less estrogenic than tamoxifen”. The “epithelial height, in words” value (ovariectomized rats; ovariectomized rats, oral) was “only at one dose was there any statistically measurable increase in epithelial height over the ovariectomized controls”, the “clearance from the bloodstream” value [5] was “cleared quickly from the bloodstream” and the “conjugation following oral administration” value [5] was “extensively conjugated to the glucuronidated form”. The “parent compound in the serum” value [5] was “not detected”.
In the case of `CC/C(=C(\c1ccccc1)c1ccc(OCCN(C)C)cc1)c1ccccc1` [tamoxifen], the “Uterine Weight” value [1, 8] is given as 216 ± 18 mg, the “uterine weight, in words” value ([1]; ovariectomized rats, oral) is given as “only modest uterotrophic activity” and the “inhibition of bone loss” value [6] is given as “has been shown to inhibit bone loss”. For the same compound, the “Bone Density” value [2, 8] was 204 ± 7 mg/cm/cm, the “prevention of bone loss” value ([2]; ovariectomized rats) was “displayed the ability to prevent reduction of femur density” and the “Epithelial Height” value (ovariectomized rats) was 2.58. For the same compound, the “Myometrial Thickness” value (ovariectomized rats) was 5.50, the “Stromal Eosinophils” value (ovariectomized rats) was 2.83 and the “Stromal Expansion” value (ovariectomized rats) was 14.17. For the same compound, the “eosinophil infiltration into the stromal layer of the uterus, in words” value (ovariectomized rats; ovariectomized rats) was “caused a significant increase”, the “thickness of the stroma and myometrium, in words” value (ovariectomized rats; ovariectomized rats) was “an increase in these measurements that was much less than the effect of estrogen” and the “epithelial height, in words” value (ovariectomized rats; ovariectomized rats, oral) was “increased epithelial height equal to that of an intact rat”. The “increase in epithelial height over the response seen with raloxifene” value (ovariectomized rats; ovariectomized rats, all doses given) was “six-fold”.
